Patent US6211158A, “Desazapurine-nucleotide derivatives, processes for the preparation thereof, pharmaceutical compositions containing them and the use thereof for nucleic acid sequencing and as antiviral agents” (Roche Diagnostics GmbH, priority 1987, dated 2001)

Columns and labels:
[1] = Stability of the N-glycosidic bond under acidic conditions, UV-absorbance as a function of time (Example 30); type: physicochemical; design: key to stability towards hydrolysis (classified): classified as stable, when no hydrolysis occurred within the hydrolysis time of the corresponding purine-derivatives; conditions: for half-life: read-out: half life [t(1/2)] of hydrolysis
Procedure: The determination of the stability of the N-glycosidic bond was carried out under acidic conditions by measuring the UV-absorbance as a function of time. The compounds were classified as stable, when no hydrolysis occurred within the hydrolysis time of the corresponding purine-derivatives.
Table of kinetic data with respect to hydrolysis of […]

[2] = Hydrolysis of the N-glycosidic bond in hydrochloric acid at 25° C., UV absorption at 258 nm (Example 29); type: physicochemical; conditions: for half-life: read-out: half life time T/2 of hydrolysis
Procedure: The stability of the N-glycosidic bond of 2',3'-didesoxynucleosides is bound up with the antiviral activity.
The hydrolysis of the bond was investigated at 25° C. in three different concentrations of hydrochloric acid. For this purpose, the UV absorption (Et) was measured at 258 nm. Via the absorption/time curve, there were determined the velocity constants of the hydrolysis (k) and the half life times (T/2) on the basis of the following equation:
k=1/t×ln(Eo -Eoo)/(Et -Eoo)
Eo being the absorption at time t=0 and Eoo being the absorption after complete termination of the reaction.
There were compared 2',3'-dideoxyadenosine (a) and 6-amino-8-aza-7-deaza-2',3'-dideoxy-9-β-D-ribofuranosylpurine (b) at 25° C.

Row | Structure (SMILES) | stability towards hydrolysis (classified) ([1]; 0.01 N HCl) | stability towards hydrolysis (classified) ([1]; 0.1 N HCl) | stability towards hydrolysis (classified) ([1]; 1 N HCl) | half-life ([1]; 0.01 n hcl) | other results
1 | Nc1nccc2c1ccn2[C@H]1CC[C@@H](CO)O1 [c^3 c^7 ddA, 6-amino-3,7-dideaza-2',3'-dideoxy-9-β-D-ribofuranosylpurine] | stable | stable | stable | – | –
2 | Nc1ncnc2c1cnn2[C@H]1CC[C@@H](CO)O1 [c^7 z^8 ddA, 6-Amino-8-aza-7-deaza-2',3'-dideoxy-9-β-D-ribofuranosylpurine] | – | – | – | 280 min | velocity constant of the hydrolysis k ([2]; 0.01 N HCl): 0.0025 min⁻¹; half-life ([2]; 0.01 N HCl): 280 min; half-life ([2]; 0.1 N HCl): 20.4 min; half-life ([2]; 1 N HCl): 0.83 min; times more stable than (a) ([2]; compared with 2',3'-dideoxyadenosine (a), HCl): more than 10 times; half-life ([1]; 0.1 n hcl): 20.4 min
3 | Nc1nc2c(cnn2[C@H]2CC[C@@H](CO)O2)c(=O)[nH]1 [c^7 z^8 ddG, 2-Amino-(2',3'-dideoxy-β-D-glyceropentofuranosyl)-1H-pyrazolo[3,4-d]pyrimidin-4-one] | – | – | – | 135 min | –
4 | Nc1ncnc2c1ccn2[C@H]1CC[C@@H](CO)O1 [c^7 ddA, 4-Amino-7-(2',3'-dideoxy-β-D-glyceropentofuranosyl)-7H-pyrrolo[2,3-d]pyrimidine] | stable | stable | stable | – | –
5 | Nc1nc2c(ccn2[C@H]2CC[C@@H](CO)O2)c(=O)[nH]1 [c^7 ddG, 2-Amino-7-deaza-2',3'-dideoxy-9-β-D-ribofuranosylpurine-6-one] | stable | stable | stable | – | –

Continued, in another order:

Row | stability towards hydrolysis (classified) ([1]; 0.01 N HCl) | stability towards hydrolysis (classified) ([1]; 0.1 N HCl) | stability towards hydrolysis (classified) ([1]; 1 N HCl) | half-life ([1]; 0.01 n hcl) | Structure (SMILES) | other results
6 | – | – | – | 37 min | Nc1nc2c(ncn2[C@H]2CC[C@@H](CO)O2)c(=O)[nH]1 [ddG, reference compound] | –
7 | – | – | – | 31.5 min | Nc1ncnc2c1ncn2[C@H]1CC[C@@H](CO)O1 [ddA, 2',3'-dideoxyadenosine, reference compound] | velocity constant of the hydrolysis k ([2]; 0.01 N HCl): 0.022 min⁻¹; half-life ([2]; 0.01 N HCl): 31.5 min; half-life ([2]; 0.1 N HCl): 1.9 min; half-life ([1]; 0.1 n hcl): 1.9 min
